Measurements reported in paper PMC2832019, “In Vitro Metabolic and Mitogenic Signaling of Insulin Glargine and Its Metabolites” (PLoS ONE, 2010).

What was measured:
[1] = tested on: human IR-A; assay: IR-A autophosphorylation (In-Cell Western); type: cell-based; settings: CHO cells overexpressing IR-A, 15 min at 37°C, In-Cell Western; means ± SEM, at least three times; read-out: IR-A auto-phosphorylation EC50
Description: (§1) CHO cells expressing either the IR-A or the IR-B isoform were used for IR autophosphorylation assays using In-Cell Western. For the analysis of IGF1R autophosphorylation the receptor was overexpressed in a mouse embryo fibroblast 3T3 Tet off cell line (BD Bioscience, Heidelberg, Germany) that was stably transfected with IGF1R tetracycline-regulatable expression plasmid resulting in the expression of ∼2.6×10^5 IGF1R per cell (as determined by FACS analysis, unpublished data). In order to determine the receptor tyrosine phosphorylation level, cells were seeded into 96-well plates and grown for 48 h. Cells were serum starved with serum-free medium αMEM (PAN Biotech GmbH, Aidenbach, Germany) for 3–4 h. […] After incubation the medium was discarded and the cells were fixed in 3.75% freshly prepared para-formaldehyde for 20 min. Cells were permeabilized with 0.1% Triton-X-100 in PBS for 20 min. Blocking was performed with Odyssey blocking buffer (LI-COR, Bad Homburg, Germany) overnight at 4°C. Anti-pTyr 4G10 (Millipore, Schwalbach, Germany) was incubated for 2 h at room temperature. After incubation of the primary antibody, cells were washed with PBS+0.1% Tween20. The secondary anti-mouse-IgG-800-CW antibody (Rockland, Gilbertsville, PA, USA) was incubated for 1 h. Results were normalized by the quantification of DNA with TO-PRO3 dye (Invitrogen, Karlsruhe, Germany). Data were obtained as relative units (RU) and are presented as fold over basal.
(§2) For each experiment, IC50 or EC50 values were obtained using the 4-parameter logistic model according to Ratkowsky and Reedy (1986). The adjustment was obtained by non-linear regression using the Levenberg-Marquardt algorithm in SAS v9.1.3 software via Biost@t-Speed V2.0-LTS internal application. If necessary, lower and upper asymptotes were set to 0 and 100, respectively.
(§3) The binding of a constant concentration of [^125I]insulin to plasma membranes from CHO cells overexpressing either IR-A or IR-B was measured in presence of increasing concentrations of unlabeled competing ligand after incubation at room temperature for 12 h. All data has been corrected for non-specific binding and are expressed as percentage of [^125I]insulin in absence of competing ligand. To analyze the insulin-stimulated activation and subsequent autophosphorylation of the insulin receptor CHO cells overexpressing the human IR-A (C) or IR-B (D) were stimulated for 15 min at 37°C with increasing concentrations of peptides, then the cells were fixed with 3.7% PFA and the amount of phosphotyrosines was analyzed via In-Cell Western. The data represent mean values ± SEM of at least 3 individual experiments measured in quadruplicate.
(§4) Insulin receptor autophosphorylation was studied using CHO cells overexpressing either IR-A or IR-B. For detection an immunocytochemical microplate assay (In-Cell Western) based on two-colour fluorescence was applied.

[2] = tested on: human IR-B; assay: Competitive receptor binding (SPA), IR-B
Procedure: (§5) The binding of the different insulins to the human IR-A and IR-B was analyzed in a competitive binding assay using the scintillation proximity assay as previously described, [30]. […] Briefly, cells were grown to confluence and gently detached, transferred to a centrifugation tube followed by centrifugation for 10 minutes at 600×g at 4°C. The pellet was resuspended in ice-cold 2.25 STM buffer (2.25 mol/L sucrose, 5 mmol/L Tris-HCl pH 7.4, 5 mmol/L MgCl2, 1x Complete Protease Inhibitor) and disrupted using a hand-held Dounce homogenizer followed by sonication. This homogenate was transferred to a centrifugation tube, overlaid with 0.8 STM buffer (0.8 mol/L sucrose, 5 mmol/L Tris-HCl pH 7.4, 5 mmol/L MgCl2, 1x Complete Protease Inhibitor) and centrifuged for 90 minutes at 100 000×g at 4°C. The emerging pellicle at the interface was collected, transferred to a new tube and washed two times with PBS by centrifugation for 10 minutes at 1500×g. The final pellet was resuspended in a small volume of dilution buffer (50 mmol/L Tris-HCl pH 7.4, 5 mmol/L MgCl2, 1x Complete Protease Inhibitor) and homogenized with a Dounce homogenizer. These plasma membrane preparations were stored until usage at –80°C.
(§6) Binding experiments were conducted in 96-well microplates. Per well 2 µg of membranes were incubated with 0.25 mg wheat germ agglutinin polyvinyltoluene polyethylenimine SPA beads, 100 pmol/L A14[^125I]-insulin and various concentrations of unlabeled insulins in a binding buffer containing 0.05 mol/L Tris-HCl pH 7.8, 0.15 mol/L NaCl, 0.1% BSA, Complete Protease Inhibitor for 12 hours at room temperature (23°C). The radioactivity was measured at equilibrium in a microplate scintillation counter (Wallac Microbeta, Freiburg, Germany).
as §2, §3

[3] = tested on: human IR-A; assay: Competitive receptor binding (SPA), IR-A
Procedure: as §5, §6, §2, §3

[4] = tested on: human IR-B; assay: IR-B autophosphorylation (In-Cell Western); type: cell-based; settings: CHO cells overexpressing IR-B, 15 min at 37°C, In-Cell Western; means ± SEM, at least three times; read-out: IR-B auto-phosphorylation EC50
Description: as §1, §2, §3, §4

[5] = target: human IGF1R; assay: Competitive binding, IGF1R; settings: [^125I]IGF-1 as radioactive ligand; means ± SEM, at least three times; read-out: IGF1R affinity IC50
Procedure: as §6, §2
Figure 4 Activity of insulin analogs on the human IGF1R and mitogenic potential in Saos-2 cells. Analysis of binding to the human IGF1R using [^125I]IGF-1 as radioactive ligand (A) and analysis of the insulin-stimulated autophosphorylation of the human IGF1R overexpressed in MEF cells (B) were done as described in figure 2 and Materials and Methods. Data are given as means ± SEM. […] Confluent cells were starved for 4 h and then incubated for 19 h with increasing concentrations of IGF-1, insulin or analog in serum free medium. [^14C]thymidine was added for further 6 h and the radioactivity measured in a Wallac Micro Scintillation counter. Data are given as means ± SEM from octuplicate sample.

[6] = tested on: MCF-7 cells, HCT-116 (colorectal cancer) and PC-3 (prostate cancer) cells; settings: ref [49]; cited from earlier work
Description: A correlation between IGF1R autophosphorylation and cell proliferation has been recently assumed by Shukla et al., who observed an enhanced growth of the malignant cell line MCF7 after insulin glargine stimulation. The authors have observed 10% and 50% increases of cellular proliferation at 0.31 and about 15 nmol/L. […] Unfortunately, no dose-response curve of IGF1R autophosphorylation as well as no proliferation data from siRNA knockdown of IR have ...

Row | Substance | EC50 [1] | IR-B binding relative to IGF-1 and human insulin ([2]; IR-B, in words) | IC50 ([2]; SPA, WGA PVT PEI beads, 2 µg membranes from CHO cells overexpressing IR-B, 100 pmol/L A14[^125I]-insulin, pH 7.8, 12 h, 23°C, means ± SEM, at least three times, read-out: IR-B affinity IC50) | higher affinity for IR-A than IR-B ([3]; IR-A relative to IR-B) | IR-A binding relative to IGF-1 and human insulin ([3]; IR-A, in words) | IC50 ([3]; SPA, WGA PVT PEI beads, 2 µg membranes from CHO cells overexpressing IR-A, 100 pmol/L A14[^125I]-insulin, pH 7.8, 12 h, 23°C, means ± SEM, at least three times, read-out: IR-A affinity IC50) | EC50 [4] | IC50 [5] | mitogenic potency [6]
1 | IGF-2: IGF-2 obtained from R&D Systems and Cell Sciences | 85.4 ± 5.5 nM | higher affinity than IGF-1 but with lower affinity than human insulin | 46.6 ± 7.8 nM | 7.5 fold | higher affinity than IGF-1 but with lower affinity than human insulin | 6.2 ± 0.34 nM | 384 ± 68.4 nM | 6.68 ± 2.24 nM | 
2 | insulin detemir |  |  |  |  |  |  |  |  | increased mitogenic potency
